Experimental data as given in US10906897B2, “Microbiocidal heterobicyclic derivatives” (priority 2015, dated 2021).

Columns and labels:
[1] = test system: Glomerella lagenarium (Colletotrichum lagenarium); test: Glomerella lagenarium (Colletotrichum lagenarium) / liquid culture (Anthracnose); type: cell-based; settings: Colletotrichum orbiculare, growth inhibition photometrically 3-4 days after application, compared to untreated control
Gaeumannomyces graminis = Gaeumannomyces graminis / liquid culture (Take-all of cereals); type: cell-based; settings: growth inhibition photometrically 4-5 days after application, compared to untreated control
Fusarium culmorum = test: microbe, parasite or virus in culture; type: cell-based; settings: read-out: control of Fusarium culmorum
[2] = test system: Botryotinia fuckeliana (Botrytis cinerea); test: Botryotinia fuckeliana (Botrytis cinerea) / liquid culture (Gray mould); type: cell-based; settings: growth inhibition photometrically 3-4 days after application, compared to untreated control
[3] = test system: Magnaporthe grisea (Pyricularia oryzae); test: whole plant or invertebrate; type: in vivo; settings: foliar, read-out: control of Magnaporthe grisea
[4] = test system: Monographella nivalis (Microdochium nivale); test: Monographella nivalis (Microdochium nivale) / liquid culture (foot rot cereals); type: cell-based; settings: 96 h, growth inhibition photometrically 4-5 days after application, compared to untreated control
[5] = test system: Magnaporthe grisea (Pyricularia oryzae); test: microbe, parasite or virus in culture; type: cell-based; settings: read-out: control of Magnaporthe grisea

Row | SMILES | inhibition of growth at 20 ppm [1] [%] | melting point [°C] | inhibition of growth at 20 ppm (Gaeumannomyces graminis) [%] | inhibition of growth at 20 ppm (Fusarium culmorum) [%] | inhibition of growth at 20 ppm [2] [%] | pest or weed control at 200 ppm [3] [%] | inhibition of growth at 20 ppm [4] [%] | inhibition of growth at 60 ppm [5] [%]
1 | CC1(C)N=C(c2cnc3ccccn23)c2cccc(F)c2C1(C)C [Compound E-1, 5-fluoro-1-imidazo[1,2-a]pyridin-3-yl-3,3,4,4-tetramethyl-isoquinoline] | ≥ 80 | 129 to 130 | ≥ 80 | ≥ 80 | ≥ 80 | – | – | –
2 | CC1(C)N=C(c2cnc3c(F)cccn23)c2cccc(F)c2C1(C)C [Compound E-6, 5-fluoro-1-(8-fluoroimidazo[1,2-a]pyridin-3-yl)-3,3,4,4-tetramethyl-isoquinoline] | ≥ 80 | 156 to 157 | ≥ 80 | ≥ 80 | ≥ 80 | ≥ 50 | ≥ 80 | –
3 | CC1(C)N=C(c2cnc3c(Br)cccn23)c2cccc(F)c2C1(C)C [Compound E-8, 1-(8-bromoimidazo[1,2-a]pyridin-3-yl)-5-fluoro-3,3,4,4-tetramethyl-isoquinoline] | ≥ 80 | – | – | ≥ 80 | ≥ 80 | ≥ 50 | – | –
4 | Cc1cccn2c(C3=NC(C)(C)C(C)(C)c4c(F)cccc43)cnc12 [Compound E-9, 5-fluoro-3,3,4,4-tetramethyl-1-(8-methylimidazo[1,2-a]pyridin-3-yl)isoquinoline] | ≥ 80 | 160 to 161 | ≥ 80 | ≥ 80 | ≥ 80 | ≥ 50 | ≥ 80 | –
5 | COc1ccc2ncc(C3=NC(C)(C)C(C)(C)c4c(F)cccc43)n2c1 [Compound E-25, 5-fluoro-1-(6-methoxyimidazo[1,2-a]pyridin-3-yl)-3,3,4,4-tetramethyl-isoquinoline] | – | 214 to 215 | ≥ 80 | – | – | – | – | –
6 | Cc1ccn2c(C3=NC(C)(C)C(C)(C)c4c(F)cccc43)cnc2c1 [Compound E-31, 5-fluoro-3,3,4,4-tetramethyl-1-(7-methylimidazo[1,2-a]pyridin-3-yl)isoquinoline] | ≥ 80 | – | – | ≥ 80 | ≥ 80 | ≥ 50 | – | –
7 | Cc1cccn2c(C3=NC(C)(C)C(C)(C)c4ccccc43)cnc12 [Compound E-33, 3,3,4,4-tetramethyl-1-(8-methylimidazo[1,2-a]pyridin-3-yl)isoquinoline] | ≥ 80 | – | – | ≥ 80 | ≥ 80 | ≥ 50 | ≥ 80 | –
8 | CC1(C)N=C(c2cnc3c(Br)cccn23)c2cccc(F)c2C1(F)F [Compound E-37, 1-(8-bromoimidazo[1,2-a]pyridin-3-yl)-4,4,5-trifluoro-3,3-dimethyl-isoquinoline] | ≥ 80 | – | ≥ 80 | – | – | – | – | –
9 | CC1(C)N=C(c2cnc3c(C#N)cccn23)c2cccc(F)c2C1(C)C [Compound E-38, 3-(5-fluoro-3,3,4,4-tetramethyl-1-isoquinolyl)imidazo[1,2-a]pyridine-8-carbonitrile] | ≥ 80 | – | ≥ 80 | – | ≥ 80 | – | ≥ 80 | –
10 | CC1(C)Cc2ccccc2C(c2cnc3c(Br)cccn23)=N1 [Compound E-41, 1-(8-bromoimidazo[1,2-a]pyridin-3-yl)-3,3-dimethyl-4H-isoquinoline] | – | 132 to 133 | ≥ 80 | – | – | – | – | –
11 | Cc1cccn2c(C3=NC(C)(C)C(F)(F)c4ccccc43)cnc12 [Compound E-45, 4,4-difluoro-3,3-dimethyl-1-(8-methylimidazo[1,2-a]pyridin-3-yl)isoquinoline] | ≥ 80 | – | – | ≥ 80 | ≥ 80 | ≥ 50 | ≥ 80 | –
12 | Cc1cccn2c(C3=NCC4(CCC4)c4ccccc43)cnc12 [Compound E-53, 1-(8-methylimidazo[1,2-a]pyridin-3-yl)spiro[3H-isoquinoline-4,1′-cyclobutane]] | – | 127 to 129 | – | – | ≥ 80 | – | ≥ 80 | ≥ 80
13 | CC1(C)N=C(c2cnn3ccccc23)c2cccc(F)c2C1(C)C [Compound E-58, 5-fluoro-3,3,4,4-tetramethyl-1-pyrazolo[1,5-a]pyridin-3-yl-isoquinoline] | ≥ 80 | 124 to 126 | ≥ 80 | – | ≥ 80 | – | – | –
14 | Cc1cccc2c(C3=NC(C)(C)C(C)(C)c4c(F)cccc43)cnn12 [Compound E-59, 5-fluoro-3,3,4,4-tetramethyl-1-(7-methylpyrazolo[1,5-a]pyridin-3-yl)isoquinoline] | ≥ 80 | 134 to 136 | – | ≥ 80 | ≥ 80 | ≥ 50 | ≥ 80 | –
15 | Cc1ccc2c(C3=NC(C)(C)C(C)(C)c4c(F)cccc43)cnn2c1C [Compound E-63, 1-(6,7-dimethylpyrazolo[1,5-a]pyridin-3-yl)-5-fluoro-3,3,4,4-tetramethyl-isoquinoline] | ≥ 80 | 175 to 176 | ≥ 80 | ≥ 80 | ≥ 80 | ≥ 50 | – | ≥ 80
16 | Cc1ccc2c(C3=NC(C)(C)C(=O)c4cc(F)ccc43)cnn2c1C [Compound E-74, 1-(6,7-dimethylpyrazolo[1,5-a]pyridin-3-yl)-6-fluoro-3,3-dimethyl-isoquinolin-4-one] | ≥ 80 | 168 to 170 | – | ≥ 80 | ≥ 80 | – | – | ≥ 80
17 | Cc1c(Br)ccc2c(C3=NC(C)(C)C(=O)c4ccccc43)cnn12 [Compound E-78, 1-(6-bromo-7-methyl-pyrazolo[1,5-a]pyridin-3-yl)-3,3-dimethyl-isoquinolin-4-one] | ≥ 80 | 166 to 168 | – | ≥ 80 | ≥ 80 | – | ≥ 80 | ≥ 80
18 | CC1(C)N=C(c2cnn3cc(C#N)ccc23)c2ccccc2C1(F)F [Compound E-85, 3-(4,4-difluoro-3,3-dimethyl-1-isoquinolyl)pyrazolo[1,5-a]pyridine-6-carbonitrile] | – | 191 to 194 | – | – | ≥ 80 | – | – | ≥ 80
19 | C#Cc1ccc2c(C3=NC(C)(C)C(F)(F)c4ccccc43)cnn2c1 [Compound E-90, 1-(6-ethynylpyrazolo[1,5-a]pyridin-3-yl)-4,4-difluoro-3,3-dimethyl-isoquinoline] | ≥ 80 | 145 to 147 | ≥ 80 | – | – | – | ≥ 80 | ≥ 80
20 | Cc1cccn2ncc(C3=NC4(CC4)C4(CC4)c4ccccc43)c12 [Compound E-95] | ≥ 80 | – | – | – | ≥ 80 | ≥ 50 | – | ≥ 80
